Assay results published in the supplement of paper PMC10307832.

Experiments:
Test in all cases: relative viability (nuclei count vs DMSO), 5 days (fraction); higher = more cells survive
[1] = system: NCI-H358
Procedure, shortened: (§1)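 Lung cancer cell lines were pin-tool dosed in 1536-well plates on the day after seeding, with either a lone drug or a fixed anchor-drug dose plus five library-drug doses (not always all listed) in √10 steps. Nuclei were counted on 4× images after 5 days. Relative viability is the ratio of treated-well to vehicle-well nuclei counts, with each value a median of duplicate plates.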

[2] = system: NCI-H647
Procedure, shortened: as §1

[3] = system: NCI-H1793
Procedure, shortened: as §1

[4] = system: SW 1573
Procedure, shortened: as §1

[5] = system: NCI-H1944
Procedure, shortened: as §1

[6] = system: UMC-11
Procedure, shortened: as §1

[7] = system: ABC-1
Procedure, shortened: as §1

[8] = system: RERF-LC-KJ
Procedure, shortened: as §1

[9] = system: NCI-H2347
Procedure, shortened: as §1

[10] = system: LK-2
Procedure, shortened: as §1

[11] = system: NCI-H322M
Procedure, shortened: as §1

[12] = system: LC-2-ad
Procedure, shortened: as §1

[13] = system: NCI-H1915
Procedure, shortened: as §1

[14] = system: EPLC-272H
Procedure, shortened: as §1

[15] = system: HCC-15
Procedure, shortened: as §1

[16] = system: NCI-H1734
Procedure, shortened: as §1

[17] = system: NCI-H2023
Procedure, shortened: as §1

[18] = system: NCI-H522
Procedure, shortened: as §1

[19] = system: NCI-H441
Procedure, shortened: as §1

[20] = system: NCI-H2009
Procedure, shortened: as §1

[21] = system: NCI-H2342
Procedure, shortened: as §1

[22] = system: A-427
Procedure, shortened: as §1

[23] = system: NCI-H838
Procedure, shortened: as §1

## CN1CCN(CCOc2cc(OC3CCOCC3)c3c(Nc4c(Cl)ccc5c4OCO5)ncnc3c2)CC1 [Saracatinib] + CCNC(=O)c1noc(-c2cc(C(C)C)c(O)cc2O)c1-c1ccc(CN2CCOCC2)cc1 [Luminespib] (partner 0.01 µM)
[1]; first compound 0.02 µM
  relative viability: 0.174
[1]; first compound 0.2 µM
  relative viability: 0.208
[1]; first compound 0.6325 µM
  relative viability: 0.309
[1]; first compound 2 µM
  relative viability: 0.318
[2]; first compound 0.02 µM
  relative viability: 0.175
[2]; first compound 0.2 µM
  relative viability: 0.171
[2]; first compound 0.6325 µM
  relative viability: 0.303
[2]; first compound 2 µM
  relative viability: 0.146
[3]; first compound 0.02 µM
  relative viability: 0.2
[3]; first compound 0.6325 µM
  relative viability: 0.173
[3]; first compound 2 µM
  relative viability: 0.177
[4]; first compound 0.02 µM
  relative viability: 0.195
[4]; first compound 0.2 µM
  relative viability: 0.217
[4]; first compound 0.6325 µM
  relative viability: 0.374
[4]; first compound 2 µM
  relative viability: 0.15
[5]; first compound 0.02 µM
  relative viability: 0.826
[5]; first compound 0.6325 µM
  relative viability: 0.846
[5]; first compound 2 µM
  relative viability: 0.459
[6]; first compound 0.02 µM
  relative viability: 0.96
[6]; first compound 0.6325 µM
  relative viability: 0.863
[6]; first compound 2 µM
  relative viability: 0.624
[7]; first compound 0.02 µM
  relative viability: 0.721
[7]; first compound 0.2 µM
  relative viability: 0.43
[7]; first compound 0.6325 µM
  relative viability: 0.599
[7]; first compound 2 µM
  relative viability: 0.766
[8]; first compound 0.02 µM
  relative viability: 1.27
[8]; first compound 0.2 µM
  relative viability: 1.38
[8]; first compound 0.6325 µM
  relative viability: 1.29
[8]; first compound 2 µM
  relative viability: 1.16
[9]; first compound 0.02 µM
  relative viability: 0.372
[9]; first compound 0.2 µM
  relative viability: 0.411
[9]; first compound 0.6325 µM
  relative viability: 0.774
[9]; first compound 2 µM
  relative viability: 0.416
[10]; first compound 0.02 µM
  relative viability: 0.218
[10]; first compound 0.2 µM
  relative viability: 0.209
[10]; first compound 0.6325 µM
  relative viability: 0.199
[10]; first compound 2 µM
  relative viability: 0.186
[11]; first compound 0.02 µM
  relative viability: 0.867
[11]; first compound 0.2 µM
  relative viability: 0.711
[11]; first compound 0.6325 µM
  relative viability: 0.682
[11]; first compound 2 µM
  relative viability: 0.378
[12]; first compound 0.02 µM
  relative viability: 0.985
[12]; first compound 0.2 µM
  relative viability: 0.912
[12]; first compound 0.6325 µM
  relative viability: 1.1
[12]; first compound 2 µM
  relative viability: 0.949
[13]; first compound 0.02 µM
  relative viability: 0.742
[13]; first compound 0.2 µM
  relative viability: 0.703
[13]; first compound 0.6325 µM
  relative viability: 0.872
[13]; first compound 2 µM
  relative viability: 0.654
[14]; first compound 0.02 µM
  relative viability: 0.24
[14]; first compound 0.2 µM
  relative viability: 0.382
[14]; first compound 0.6325 µM
  relative viability: 0.123
[14]; first compound 2 µM
  relative viability: 0.197
[15]; first compound 0.02 µM
  relative viability: 0.343
[15]; first compound 0.2 µM
  relative viability: 0.32
[15]; first compound 0.6325 µM
  relative viability: 0.331
[15]; first compound 2 µM
  relative viability: 0.176
[16]; first compound 0.02 µM
  relative viability: 0.224
[16]; first compound 0.6325 µM
  relative viability: 0.213
[16]; first compound 2 µM
  relative viability: 0.181
[17]; first compound 0.02 µM
  relative viability: 0.773
[17]; first compound 0.6325 µM
  relative viability: 0.735
[17]; first compound 2 µM
  relative viability: 0.471
[18]; first compound 0.02 µM
  relative viability: 1.13
[18]; first compound 0.2 µM
  relative viability: 0.943
[18]; first compound 0.6325 µM
  relative viability: 1.11
[18]; first compound 2 µM
  relative viability: 0.949
[19]; first compound 0.02 µM
  relative viability: 0.44
[19]; first compound 0.2 µM
  relative viability: 0.268
[19]; first compound 0.6325 µM
  relative viability: 0.286
[19]; first compound 2 µM
  relative viability: 0.247
[20]; first compound 0.02 µM
  relative viability: 0.997
[20]; first compound 0.2 µM
  relative viability: 1.04
[20]; first compound 0.6325 µM
  relative viability: 0.951
[20]; first compound 2 µM
  relative viability: 0.913
[21]; first compound 0.02 µM
  relative viability: 0.659
[21]; first compound 0.2 µM
  relative viability: 0.698
[21]; first compound 0.6325 µM
  relative viability: 0.758
[21]; first compound 2 µM
  relative viability: 0.519
[22]; first compound 0.02 µM
  relative viability: 0.985
[22]; first compound 0.2 µM
  relative viability: 0.755
[22]; first compound 0.6325 µM
  relative viability: 0.907
[22]; first compound 2 µM
  relative viability: 0.888
[23]; first compound 0.02 µM
  relative viability: 0.264
[23]; first compound 0.2 µM
  relative viability: 0.411
[23]; first compound 0.6325 µM
  relative viability: 0.307
[23]; first compound 2 µM
  relative viability: 0.271

## CN1CCN(CCOc2cc(OC3CCOCC3)c3c(Nc4c(Cl)ccc5c4OCO5)ncnc3c2)CC1 [Saracatinib] + COc1cccc2cc(-c3nc([C@H]4CC[C@H](C(=O)O)CC4)n4ncnc(N)c34)[nH]c12 [OSI-027] (partner 0.5 µM)
[1]; first compound 0.02 µM
  relative viability: 0.707
[1]; first compound 0.2 µM
  relative viability: 0.391
[1]; first compound 0.6325 µM
  relative viability: 0.466
[1]; first compound 2 µM
  relative viability: 0.289
[2]; first compound 0.02 µM
  relative viability: 0.584
[2]; first compound 0.2 µM
  relative viability: 0.65
[2]; first compound 0.6325 µM
  relative viability: 0.637
[2]; first compound 2 µM
  relative viability: 0.381
[3]; first compound 0.02 µM
  relative viability: 0.303
[3]; first compound 0.6325 µM
  relative viability: 0.312
[3]; first compound 2 µM
  relative viability: 0.253
[4]; first compound 0.02 µM
  relative viability: 0.624
[4]; first compound 0.2 µM
  relative viability: 0.55
[4]; first compound 0.6325 µM
  relative viability: 0.667
[4]; first compound 2 µM
  relative viability: 0.456
[5]; first compound 0.02 µM
  relative viability: 0.43
[5]; first compound 0.6325 µM
  relative viability: 0.324
[5]; first compound 2 µM
  relative viability: 0.274
[6]; first compound 0.02 µM
  relative viability: 0.503
[6]; first compound 0.6325 µM
  relative viability: 0.453
[6]; first compound 2 µM
  relative viability: 0.339
[7]; first compound 0.02 µM
  relative viability: 0.428
[7]; first compound 0.2 µM
  relative viability: 0.65
[7]; first compound 0.6325 µM
  relative viability: 0.547
[7]; first compound 2 µM
  relative viability: 0.543
[8]; first compound 0.02 µM
  relative viability: 0.575
[8]; first compound 0.2 µM
  relative viability: 0.569
[8]; first compound 0.6325 µM
  relative viability: 0.546
[8]; first compound 2 µM
  relative viability: 0.52
[9]; first compound 0.02 µM
  relative viability: 0.348
[9]; first compound 0.2 µM
  relative viability: 0.373
[9]; first compound 0.6325 µM
  relative viability: 0.406
[9]; first compound 2 µM
  relative viability: 0.306
[10]; first compound 0.02 µM
  relative viability: 0.218
[10]; first compound 0.2 µM
  relative viability: 0.165
[10]; first compound 0.6325 µM
  relative viability: 0.161
[10]; first compound 2 µM
  relative viability: 0.151
[11]; first compound 0.02 µM
  relative viability: 0.56
[11]; first compound 0.2 µM
  relative viability: 0.499
[11]; first compound 0.6325 µM
  relative viability: 0.449
[11]; first compound 2 µM
  relative viability: 0.275
[12]; first compound 0.02 µM
  relative viability: 0.844
[12]; first compound 0.2 µM
  relative viability: 0.804
[12]; first compound 0.6325 µM
  relative viability: 0.881
[12]; first compound 2 µM
  relative viability: 0.728
[13]; first compound 0.02 µM
  relative viability: 0.623
[13]; first compound 0.2 µM
  relative viability: 0.408
[13]; first compound 0.6325 µM
  relative viability: 0.587
[13]; first compound 2 µM
  relative viability: 0.474
[14]; first compound 0.02 µM
  relative viability: 0.304
[14]; first compound 0.2 µM
  relative viability: 0.27
[14]; first compound 0.6325 µM
  relative viability: 0.348
[14]; first compound 2 µM
  relative viability: 0.278
[15]; first compound 0.02 µM
  relative viability: 0.806
[15]; first compound 0.2 µM
  relative viability: 0.586
[15]; first compound 0.6325 µM
  relative viability: 0.708
[15]; first compound 2 µM
  relative viability: 0.605
[16]; first compound 0.02 µM
  relative viability: 0.635
[16]; first compound 0.6325 µM
  relative viability: 0.571
[16]; first compound 2 µM
  relative viability: 0.507
[17]; first compound 0.02 µM
  relative viability: 0.473
[17]; first compound 0.2 µM
  relative viability: 0.394
[17]; first compound 0.6325 µM
  relative viability: 0.316
[17]; first compound 2 µM
  relative viability: 0.273
[18]; first compound 0.02 µM
  relative viability: 0.703
[18]; first compound 0.6325 µM
  relative viability: 0.692
[18]; first compound 2 µM
  relative viability: 0.683
[19]; first compound 0.02 µM
  relative viability: 0.614
[19]; first compound 0.2 µM
  relative viability: 0.532
[19]; first compound 0.6325 µM
  relative viability: 0.875
[19]; first compound 2 µM
  relative viability: 0.623
[20]; first compound 0.02 µM
  relative viability: 0.628
[20]; first compound 0.2 µM
  relative viability: 0.547
[20]; first compound 0.6325 µM
  relative viability: 0.579
[20]; first compound 2 µM
  relative viability: 0.357
[21]; first compound 0.02 µM
  relative viability: 0.689
[21]; first compound 0.2 µM
  relative viability: 0.702
[21]; first compound 0.6325 µM
  relative viability: 0.64
[21]; first compound 2 µM
  relative viability: 0.637
[22]; first compound 0.02 µM
  relative viability: 0.506
[22]; first compound 0.2 µM
  relative viability: 0.409
[22]; first compound 0.6325 µM
  relative viability: 0.445
[22]; first compound 2 µM
  relative viability: 0.493
[23]; first compound 0.02 µM
  relative viability: 0.348
[23]; first compound 0.2 µM
  relative viability: 0.302
[23]; first compound 0.6325 µM
  relative viability: 0.401
[23]; first compound 2 µM
  relative viability: 0.235
